What was measured:
[1] = test system: murine CD8^+ T cells; test: Cell growth and viability of murine CD8^+ T cells; assay type: cell-based; conditions: 7 days
Protocol: After 7 days of culture, we assessed the abundance of CD62L^hiCD44^hi (TCM-like) T cells by flow cytometry (Fig. 1a). We additionally determined the effect of each compound on cell growth and viability (Fig. 1b and Extended Data Fig. 1a).
B16F10 cells were originally purchased from ATCC (catalogue no. CRL-6475) and genetically modified to express OVA, enhanced green fluorescent protein (GFP) and neomycin phosphotransferase. The resulting OVA expression B16F10-OVA cells were cultured in DMEM (catalogue no. 11995065, Thermo Fisher Scientific) containing 0.75 mg ml^−1 G418 sulphate (catalogue no. 10131027, Thermo Fisher Scientific). HEK 293T cells were purchased from Takara Bio (catalogue no. 632180) and cultured in DMEM. SKOV3 was purchased from ATCC (catalogue no. HTB-77) and cultured in McCoy’s 5A (Modified) Medium (catalogue no. 16600082, Thermo Fisher Scientific). Raji-GFP-Luc cells were purchased from Biocytogen (catalogue no. B-HCL-010) and cultured in Roswell Park Memorial Institute (RPMI) 1640 (catalogue no. 21875, Thermo Fisher Scientific). Jurkat cells were purchased from ATCC (catalogue no. TIB-152) and cultured in RPMI 1640. RAW 264.7 cells were purchased from ATCC (catalogue no. TIB-71) and cultured in RPMI 1640. HeLa cells were a gift from P. Lehner (University of Cambridge) and were authenticated using short tandem repeat profiling (Eurofins Genomics). HeLa cells were cultured in DMEM. MEFs were isolated from macerated embryonic day (E) 12.5–13.5 embryos. A whole litter of embryos without sex selection were used. Stable transfection with SV40 large T antigen passage 3 was used for immortalization. Cells were subcultured over 17 more passages and maintained in DMEM[63]. All media was supplemented with 10% FCS (catalogue no. 10270106, Gibco), 100 U ml^−1 penicillin and 100 µg ml^−1 streptomycin (catalogue no. P4333, Sigma-Aldrich). […] Cell number and viability was determined using the ADAM-MC Automated Cell Counter (NanoEntek), CellDrop Automated Cell Counter (DeNovix) or TC20 Automated Cell Counter (Bio-Rad Laboratories). […]

[2] = test system: H3 lysine methylation in human CD8^+ T cells; test: Histone 3 methylation western blot; assay type: cell-based; conditions: 7 days
Protocol: Histones were extracted with the Histone Extraction Kit (catalogue no. ab113476, Abcam). Proteins were separated by SDS–PAGE and transferred to polyvinylidene fluoride (PVDF) membranes. Total protein stain was obtained using non-stain protein labelling reagent (catalogue no. A44448, Thermo Fisher Scientific). Membranes were then blocked in 5% milk prepared in PBS plus 0.05% Tween-20, incubated with primary antibodies overnight at 4 °C and horseradish peroxidase (HRP)-conjugated secondary antibodies (catalogue nos. HAF008 and HAF007, R&D Systems) for 1 h the next day. After enhanced chemiluminescence (ECL) exposure (catalogue no. GERPN2106, Sigma-Aldrich), membranes were imaged using an iBrightCL1000 (Thermo Fisher Scientific). […] 13998); and anti-H3k27ac (catalogue no.

With `CCCCCCCCOC(=O)[C@@H](O)CCC(=O)[O-].[Na+]` [octyl ester S-2HG, (2S)-2-hydroxyglutaric acid octyl ester sodium salt, reference compound] the “concentration from which cell growth is decreased” value [1] was ≥ 400 µM.

With `O=C(O)CCC(=O)C(=O)O` [αKG, α-ketoglutarate, reference compound] the “H3K9me2 levels on addition of αKG to DEG” value ([2]; 500 µM αKG with 500 µM DEG) was “not reduced” and the “DEG-induced increase in H3K9 and H3K27 trimethylation on addition of αKG” value ([2]; equimolar αKG (500 µM) with 500 µM DEG) was “abrogated”.
